Measurements taken from BindingDB's records for PubMed 28189086 (Texas Southern University, 2017).
pIC50: −log10 of the molar value.

Molecular target: Maltase-glucoamylase (Homo sapiens, UniProt O43451)
Assay: Inhibition of Alpha-glucosidase (unknown origin)

Chain of Maltase-glucoamylase (O43451 whole entry): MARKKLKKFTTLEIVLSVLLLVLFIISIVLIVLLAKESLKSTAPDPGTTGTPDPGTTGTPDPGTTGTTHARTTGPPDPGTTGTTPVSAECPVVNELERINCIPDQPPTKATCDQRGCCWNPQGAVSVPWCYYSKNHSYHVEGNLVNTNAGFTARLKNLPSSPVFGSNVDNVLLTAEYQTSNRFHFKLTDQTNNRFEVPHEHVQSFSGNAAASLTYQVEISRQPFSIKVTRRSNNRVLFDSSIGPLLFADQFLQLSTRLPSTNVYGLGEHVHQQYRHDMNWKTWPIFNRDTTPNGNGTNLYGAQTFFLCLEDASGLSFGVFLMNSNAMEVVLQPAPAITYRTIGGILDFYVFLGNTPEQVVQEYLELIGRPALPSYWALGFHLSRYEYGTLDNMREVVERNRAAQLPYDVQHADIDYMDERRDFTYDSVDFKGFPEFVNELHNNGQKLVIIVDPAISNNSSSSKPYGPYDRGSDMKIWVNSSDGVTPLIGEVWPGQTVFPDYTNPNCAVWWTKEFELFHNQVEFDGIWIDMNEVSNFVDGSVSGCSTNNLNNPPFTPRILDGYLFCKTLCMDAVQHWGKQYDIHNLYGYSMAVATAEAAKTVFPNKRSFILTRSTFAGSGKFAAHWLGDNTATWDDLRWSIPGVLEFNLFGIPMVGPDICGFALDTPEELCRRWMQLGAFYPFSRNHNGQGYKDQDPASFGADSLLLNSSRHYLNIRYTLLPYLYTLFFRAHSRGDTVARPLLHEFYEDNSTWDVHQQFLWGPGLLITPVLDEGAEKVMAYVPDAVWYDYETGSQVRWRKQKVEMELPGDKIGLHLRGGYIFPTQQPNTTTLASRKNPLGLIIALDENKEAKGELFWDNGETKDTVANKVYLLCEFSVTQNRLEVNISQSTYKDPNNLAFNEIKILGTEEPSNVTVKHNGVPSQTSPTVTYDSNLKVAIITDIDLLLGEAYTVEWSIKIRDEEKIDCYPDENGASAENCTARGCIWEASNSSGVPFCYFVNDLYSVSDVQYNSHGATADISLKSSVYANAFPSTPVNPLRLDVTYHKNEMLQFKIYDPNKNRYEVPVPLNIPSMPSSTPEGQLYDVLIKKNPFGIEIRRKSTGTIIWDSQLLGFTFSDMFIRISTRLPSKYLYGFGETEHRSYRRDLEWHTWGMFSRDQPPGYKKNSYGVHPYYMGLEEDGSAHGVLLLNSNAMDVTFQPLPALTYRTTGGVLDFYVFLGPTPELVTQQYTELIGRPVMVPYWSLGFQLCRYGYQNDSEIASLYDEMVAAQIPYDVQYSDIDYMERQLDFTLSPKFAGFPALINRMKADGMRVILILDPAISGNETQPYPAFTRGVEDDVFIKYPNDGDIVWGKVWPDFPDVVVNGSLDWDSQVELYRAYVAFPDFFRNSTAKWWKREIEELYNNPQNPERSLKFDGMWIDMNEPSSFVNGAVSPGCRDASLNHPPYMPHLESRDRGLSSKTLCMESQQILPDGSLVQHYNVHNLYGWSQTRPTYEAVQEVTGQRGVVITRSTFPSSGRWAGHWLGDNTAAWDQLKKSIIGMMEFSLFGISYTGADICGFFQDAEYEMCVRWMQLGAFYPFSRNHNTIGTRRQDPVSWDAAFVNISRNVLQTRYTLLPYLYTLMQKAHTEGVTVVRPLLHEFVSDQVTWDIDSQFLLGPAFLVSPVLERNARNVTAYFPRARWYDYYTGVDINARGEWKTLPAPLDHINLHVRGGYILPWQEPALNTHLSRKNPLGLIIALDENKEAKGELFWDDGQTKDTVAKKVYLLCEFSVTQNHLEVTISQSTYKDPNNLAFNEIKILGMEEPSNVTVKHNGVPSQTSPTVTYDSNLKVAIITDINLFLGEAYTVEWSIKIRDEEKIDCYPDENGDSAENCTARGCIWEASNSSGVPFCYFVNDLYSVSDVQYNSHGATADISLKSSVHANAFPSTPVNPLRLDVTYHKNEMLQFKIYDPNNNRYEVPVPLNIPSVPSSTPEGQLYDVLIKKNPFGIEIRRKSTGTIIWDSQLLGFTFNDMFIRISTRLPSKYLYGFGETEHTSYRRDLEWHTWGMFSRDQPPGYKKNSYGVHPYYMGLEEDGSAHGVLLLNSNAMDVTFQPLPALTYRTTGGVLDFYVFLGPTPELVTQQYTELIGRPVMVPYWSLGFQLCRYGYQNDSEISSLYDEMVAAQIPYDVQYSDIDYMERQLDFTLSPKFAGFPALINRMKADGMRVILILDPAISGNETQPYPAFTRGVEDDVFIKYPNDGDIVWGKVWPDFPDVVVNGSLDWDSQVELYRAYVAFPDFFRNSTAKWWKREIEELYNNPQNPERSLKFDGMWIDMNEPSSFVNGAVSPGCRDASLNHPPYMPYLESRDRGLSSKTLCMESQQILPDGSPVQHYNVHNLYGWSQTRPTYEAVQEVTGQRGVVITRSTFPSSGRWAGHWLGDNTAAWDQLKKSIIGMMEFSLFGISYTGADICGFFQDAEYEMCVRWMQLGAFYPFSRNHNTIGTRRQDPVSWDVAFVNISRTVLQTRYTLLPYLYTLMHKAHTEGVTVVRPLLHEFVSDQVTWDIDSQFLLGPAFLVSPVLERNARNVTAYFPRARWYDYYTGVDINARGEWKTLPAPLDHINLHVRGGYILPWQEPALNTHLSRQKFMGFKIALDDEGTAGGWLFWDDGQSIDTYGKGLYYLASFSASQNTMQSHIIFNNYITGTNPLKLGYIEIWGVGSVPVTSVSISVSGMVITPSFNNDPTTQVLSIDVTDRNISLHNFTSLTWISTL

pIC50	SMILES
3.76	COc1ccc2c(c1OC)O[C@H]1c3ccc(O)cc3OC[C@@H]21
3.89	COc1ccc2c(c1)OC[C@H]1c3ccc(OC)c(O)c3O[C@@H]21
5.22	O=c1oc2cc(O)ccc2c2oc3cc(O)ccc3c12 [5,14-dihydroxy-8,17-dioxatetracyclo[8.7.0.0^{2,7}.0^{11,16}]heptadeca-1(10),2,4,6,11(16),12,14-heptaen-9-one]
